Measured values from patent publication US20120046329A1, “MODULATORS OF NOD1 AND NOD2 SIGNALING, METHODS OF IDENTIFYING MODULATORS OF NOD1 AND NOD2 SIGNALING, AND USES THEREOF” (Sanford-Burnham Medical Research Institute, priority 2010, published 2012).
In brackets after ≈: the same amount, converted by molar mass. Where two headings read alike, the source gives them in different places.

Tests used:
TNF-α induced NF-κB = experiment: TNF-α-induced NF-κB luciferase reporter counterscreen, HEK293T; assay type: cell-based, human
[1] = Plasma protein binding, human; assay type: in vitro ADME; details: for Plasma Protein Binding (% Bound): Human
Plasma stability, human = assay type: in vitro ADME
Plasma stability, mouse = assay type: in vitro ADME
[2] = Microsomal stability, mouse; assay type: in vitro ADME
[3] = test system: Fa2N-4 immortalized human hepatocytes; experiment: Toxicity towards Fa2N-4 immortalized human hepatocytes; assay type: cell-based
TLR1, 2, 4, 5, 6 and 8 = experiment: NF-κB SEAP reporter in PMA-differentiated THP.1 macrophages, TLR agonists; assay type: cell-based, human; details: 5 μM, 24 h
Protocol: After 24 h incubation, SLAP activity in culture supernatants was measured, expressing data as percentage relative to treatment with inducer only (indicated as 100%; mean±SEM, n=2).
Human myelomonocytic THP-1 cells containing a NF-κB/AP-1-inducible reporter gene encoding secreted alkaline phosphatase (SEAP) were employed for convenient monitoring of NF-κB activity.
THP.1-Blue™ monocytic cells (Invivogen), stably containing NF-κB-driven secreted alkaline phosphatase reporter (SEAP), were plated and further treated as indicated. Stimulation was accessed colorimetrically measuring SEAP secreted into culture supernatants (QUANTI-Blue'm, Invivogen), using SpectraMax 190 plate reader (Molecular Devices).

inflammasome = experiment: IL-1β secretion ELISA in RAW264.7 cells, inflammasome activators; assay type: cell-based, mouse; details: RAW264.7, 5 μM
From the text: Supernatants were collected after either 2 hrs (Salmonella infection) or 4 hrs (all others) and IL-1β levels were quantified by ELISA (mean+SD; n=3).
Many NLRs form complexes with caspase-1, creating so-called “inflammasomes” responsible for proteolytic processing of inflammatory cytokine interleukin 1-beta (IL-1β). […] (FIGS. 1D and 1G), indicating a lack of promiscuity towards other NLRs.
ELISA: For IL-8 ELISA, MCF7 cells stably expressing His6-FLAG-tagged NOD1 or NOD2 were produced by lentivirus infection. Cells were cultured up to 90% confluency. Assays were initiated using 5,000 cells per well (in 100 μl volume) of a 96-well transparent culture plate. […] Supernatants were collected into a new 96-well plate and stored at −80° C. IL-8 levels were measured using a human IL-8 ELISA (BD OptEIA™ Human IL-8 ELISA Set, BD Biosciences). For IL-1β ELISA, assays were initiated using 50,000 RAW264.7 cells per well (in 100 μl of Opti-Mem medium, Invitrogen) of a 96-well transparent culture plate. Cell treatments were performed as indicated. IL-1β levels were measured using mouse IL-1 beta ELISA Ready-Set-Go!™ Kit (E-Biosciences).

[4] = target: NOD1 association with RIP2, Bid, or SGT-1 (Homo sapiens, UniProt Q9Y239); experiment: Co-immunoprecipitation of NOD1 with interacting proteins, HEK 293T; assay type: cell-based; details: over-expressing conditions, 5 μM
NOD1 = target: T1, NOD1 (Homo sapiens, UniProt Q9Y239); experiment: γ-tri-DAP-induced IkBα mRNA expression; assay type: cell-based
T1 sequence (Q9Y239 1-953): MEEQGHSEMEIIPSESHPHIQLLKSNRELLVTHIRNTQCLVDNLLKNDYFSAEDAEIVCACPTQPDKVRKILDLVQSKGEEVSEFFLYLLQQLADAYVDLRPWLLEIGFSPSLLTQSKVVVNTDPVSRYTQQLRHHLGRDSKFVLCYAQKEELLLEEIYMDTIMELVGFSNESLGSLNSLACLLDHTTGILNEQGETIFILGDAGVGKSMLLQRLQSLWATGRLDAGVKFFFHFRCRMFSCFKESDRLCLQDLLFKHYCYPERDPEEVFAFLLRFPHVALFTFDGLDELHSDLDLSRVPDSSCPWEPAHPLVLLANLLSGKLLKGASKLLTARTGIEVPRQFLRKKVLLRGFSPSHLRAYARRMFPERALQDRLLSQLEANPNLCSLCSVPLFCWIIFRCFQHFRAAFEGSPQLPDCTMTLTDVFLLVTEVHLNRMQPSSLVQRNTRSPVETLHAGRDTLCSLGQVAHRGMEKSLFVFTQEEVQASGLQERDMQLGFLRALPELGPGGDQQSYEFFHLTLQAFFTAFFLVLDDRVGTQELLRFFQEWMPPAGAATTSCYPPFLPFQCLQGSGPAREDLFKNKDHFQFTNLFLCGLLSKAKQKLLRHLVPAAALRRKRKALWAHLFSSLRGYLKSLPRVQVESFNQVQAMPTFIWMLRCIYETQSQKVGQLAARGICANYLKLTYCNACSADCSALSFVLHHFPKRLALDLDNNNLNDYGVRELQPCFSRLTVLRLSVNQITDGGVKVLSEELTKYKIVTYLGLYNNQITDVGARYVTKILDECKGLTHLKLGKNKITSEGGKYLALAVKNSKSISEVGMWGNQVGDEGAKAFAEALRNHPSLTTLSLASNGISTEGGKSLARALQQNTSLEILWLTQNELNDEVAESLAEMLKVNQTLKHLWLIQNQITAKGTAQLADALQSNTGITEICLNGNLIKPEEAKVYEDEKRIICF
Protocol: RNA analysis: Total RNA was extracted using RNeasy™ Plus Mini kit (Qiagen). After isolation, 1-5 μg total RNA was reverse-transcribed, in the presence of oligo (dT) primer, according to the manufacturer (SuperScript First-Strand Synthesis, Invitrogen). First strand cDNA was diluted and analyzed in triplicates with gene-specific primers by realtime PCR, using a Stratagene Mx3000p sequence detection system with SYBR Green PCR master mix (Applied Biosystems). The gene expression (fold induction) was normalized with the respective levels of beta-actin or cyclophilin (CPH) expression. For TaqMan™-based quantitative PCR, assays were performed using TaqMan™ Gene Expression Master Mix with validated primers and probes (TNF: Hs00174128_ml, IL1B: Hs01555410_ml, IL6: Hs00985639_ml, NOD1: Hs00196075_ml, ACTB: hs999999903_ml) from Applied Biosystems.

[5] = Solubility in aqueous buffer
NOD2 [6] = target: T2, NOD2 (Homo sapiens, UniProt Q9HC29); experiment: MDP-induced IL-8 secretion in MCF-7/NOD2 cells; details: MCF-7 cells, ELISA
[7] = test system: noncanonical NF-κB activation induced by BAFF; experiment: NF-κB luciferase in 697 pre-B leukemia cells, BAFF; details: 697 cells, 10 μM
Protocol: Luciferase activity was measured 24 h later (mean±SD; n=3).
Gene reporter assays: HEK293T or 697 cells containing integrated 5×NFκB-driven luciferase reporter gene were seeded into 96-well plates at 10^4 to 10^5 cells per well, and treated with respective inducers for 16 to 24 hours. […] The next day, cells were transfected with 50 ng pNF-κB-LUC (Clontech) and 5 ng Renilla luciferase gene driven by a constitutive TK promoter (pRL-TK; Promega) along with indicated plasmids. After 24 h of transfection in some experiments, cells were stimulated with various agents for 24 h or directly lysed and luciferase activities were assayed using the Dual Luciferase kit (Promega). The results for firefly luciferase activity were normalized to renilla luciferase activity. […] The mean results were obtained from triplicates.

NOD2 [8] = target: T2, NOD2; experiment: MDP-stimulated (NOD2-dependent) NF-κB reporter assay; details: reporter cell lines with low and overexpressed NOD2
NOD2 [9] = target: T2, NOD2; experiment: Subcellular fractionation of MCF-7 cells expressing tagged NOD2; details: MCF-7, 5 μM, 24 h
Protocol: After 24 h treatment, cytosolic and membrane subcellular fractions were isolated and analyzed (10 μg protein) by immunoblotting using antibodies specific for α-tubulin (cytosolic marker), pan-cadherin (plasma membrane marker), NOD2 (using anti-FLAG antibodies) and RIP2.
For subcellular fractionation, cytosolic fractions were obtained by extensive resuspension of cell pellets into buffer A (10 mM Hepes 7.5, 1.5 mM MgCl2, 10 mM KCl, 0.5 mM DTT and protease inhibitors). […] Immunoblotting was performed using respective antibodies. Total lysates (50-60 μg) and subcellular fractions (10 μg) were also immunoblotted after protein quantification (Bio-Rad Protein Assay).

[10] = test system: interferon response stimuli (RIG-I/MDA-5, IRF3); experiment: ISRE-driven luciferase reporter in HEK293T, poly(I:C), poly(dA:dT), Sendai virus; details: 5 μM

T2 sequence (Q9HC29 whole entry): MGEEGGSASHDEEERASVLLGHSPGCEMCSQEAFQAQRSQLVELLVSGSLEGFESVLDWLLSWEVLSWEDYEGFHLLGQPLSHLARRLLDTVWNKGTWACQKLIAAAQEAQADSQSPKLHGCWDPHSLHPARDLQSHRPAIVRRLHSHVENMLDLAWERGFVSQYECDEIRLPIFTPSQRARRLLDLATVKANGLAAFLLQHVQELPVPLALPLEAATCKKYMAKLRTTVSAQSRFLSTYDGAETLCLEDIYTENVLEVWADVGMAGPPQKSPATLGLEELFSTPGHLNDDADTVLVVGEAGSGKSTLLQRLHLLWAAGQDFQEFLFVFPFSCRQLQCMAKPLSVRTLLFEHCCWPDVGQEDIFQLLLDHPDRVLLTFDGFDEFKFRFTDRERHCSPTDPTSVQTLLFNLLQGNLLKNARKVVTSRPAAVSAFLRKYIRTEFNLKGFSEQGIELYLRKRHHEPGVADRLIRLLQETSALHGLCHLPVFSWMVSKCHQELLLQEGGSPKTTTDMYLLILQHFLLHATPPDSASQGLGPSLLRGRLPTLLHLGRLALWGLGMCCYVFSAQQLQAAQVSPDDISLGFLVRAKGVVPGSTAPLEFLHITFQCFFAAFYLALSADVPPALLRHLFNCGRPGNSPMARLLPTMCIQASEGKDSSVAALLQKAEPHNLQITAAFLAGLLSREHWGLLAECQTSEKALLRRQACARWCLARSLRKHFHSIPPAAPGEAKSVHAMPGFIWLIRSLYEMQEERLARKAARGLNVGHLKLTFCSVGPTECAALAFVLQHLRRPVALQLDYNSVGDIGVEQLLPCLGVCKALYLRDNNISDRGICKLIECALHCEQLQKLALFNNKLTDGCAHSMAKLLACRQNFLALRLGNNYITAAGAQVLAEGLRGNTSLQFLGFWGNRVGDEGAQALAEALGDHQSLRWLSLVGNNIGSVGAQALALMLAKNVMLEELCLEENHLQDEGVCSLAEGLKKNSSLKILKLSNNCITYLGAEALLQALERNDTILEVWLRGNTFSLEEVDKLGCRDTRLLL
Chain of NOD1 association with RIP2, Bid, or SGT-1 (O43353 whole entry partner, one chain of several): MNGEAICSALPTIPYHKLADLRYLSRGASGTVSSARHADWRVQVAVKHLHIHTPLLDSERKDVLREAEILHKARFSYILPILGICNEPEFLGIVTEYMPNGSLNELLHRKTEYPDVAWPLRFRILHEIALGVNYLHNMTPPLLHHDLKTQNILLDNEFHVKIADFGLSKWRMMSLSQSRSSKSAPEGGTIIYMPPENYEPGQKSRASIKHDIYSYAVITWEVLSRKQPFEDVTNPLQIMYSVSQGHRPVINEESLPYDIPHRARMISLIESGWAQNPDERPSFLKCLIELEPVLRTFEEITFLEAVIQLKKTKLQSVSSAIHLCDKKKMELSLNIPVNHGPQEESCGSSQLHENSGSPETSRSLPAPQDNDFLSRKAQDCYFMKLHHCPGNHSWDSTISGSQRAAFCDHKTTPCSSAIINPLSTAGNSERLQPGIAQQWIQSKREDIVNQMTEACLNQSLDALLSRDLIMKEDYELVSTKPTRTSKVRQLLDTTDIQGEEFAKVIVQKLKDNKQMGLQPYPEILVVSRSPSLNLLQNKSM

Cc1ccc(S(=O)(=O)n2c(N)nc3ccccc32)cc1 [Compound 1]
IC50 (TNF-α induced NF-κB; Homo sapiens, HEK-293T, read-out: TNF-α IC50(μM)): > 20 µM
Activity on TNFα induced NF-κB (in words) (TNF-α induced NF-κB; reporter assay, listed as CID1088438): selective
Plasma Protein Binding (% Bound) ([1]; 1 μM): 97.74 % Bound
Plasma Protein Binding (% Bound) ([1]; 10 μM): 97.45 % Bound
Plasma protein binding (in words) ([1]; human): high
Plasma Stability (% Remaining at 3 hrs) (Plasma stability, human; Human, 3 hrs): 100/100 % Remaining
Stability in plasma (in words) (Plasma stability, human; human): high
Plasma Stability (% Remaining at 3 hrs) (Plasma stability, mouse; Mouse, 3 hrs): 100/100 % Remaining
Stability in plasma (in words) (Plasma stability, mouse; mouse): high
Microsomal Stability (% Remaining at 1 hr) ([2]; Mouse, 1 hr): 0.83 % Remaining
Stability in microsomes (in words) ([2]; mouse): low
Toxicity (LD50, μM) [3]: > 50 µM
Toxicity (LD50, μM) ([3]; listed as MLS-0350096): >50 µM
Effect on NF-κB-inducible SEAP activity induced by TLR agonists (TLR1, 2, 4, 5, 6 and 8): No inhibitory effects
Effect on IL-1β secretion induced by inflammasome activators (inflammasome): did not inhibit
Interference with NOD1 association with RIP2, Bid, or SGT-1 [4]: did not interfere
γ-tri-DAP-induced expression of IkBα at the mRNA level (NOD1): inhibited
Permeability (Permeability; pH 5.0): 491 ×10⁻⁶ cm/s
Permeability (Permeability; pH 6.2): 562 ×10⁻⁶ cm/s
Permeability (Permeability; pH 7.4): 382 ×10⁻⁶ cm/s
Permeability (in words) (Permeability; three pH levels): high
Solubility ([5]; aqueous buffer, pH 6.2, aqueous buffer): 1.7 µg/mL (≈ 5.92 µM)
Solubility ([5]; pH 5.0, aqueous buffer): 2.0 µg/mL (≈ 6.96 µM)
Solubility ([5]; pH 7.4, aqueous buffer): 2.0 µg/mL (≈ 6.96 µM)
Solubility (in words) ([5]; three pH levels): low
Activity on MDP induced (NOD2) mediated IL-8 release (in words) (NOD2 [6]): inactivity
Effect on NF-κB activation induced by BAFF [7]: not inhibited
Inhibition of MDP stimulated (NOD2-dependent) signaling (NOD2 [8]): not inhibiting
NOD2 compartmentalization (NOD2 [9]): No changes
Effect on ISRE-driven reporter gene activity induced by other interferon response stimuli [10]: no inhibition
